{
  "source": "patent US12061201B2",
  "about": "“Fluorescent probes for the visualization of FtsZ in gram-positive and gram-negative bacterial pathogens” (Rutgers, The State University of New Jersey, priority 2019, dated 2024)",
  "test_in_all_cases": "Fluorescence anisotropy binding of BOFP to FtsZ",
  "key": {"[1]": {"target": "Streptococcus pyogenes FtsZ (SpyFtsZ) (Streptococcus pyogenes, UniProt Q99YV7)", "sequence (Q99YV7 entry or part of it)": "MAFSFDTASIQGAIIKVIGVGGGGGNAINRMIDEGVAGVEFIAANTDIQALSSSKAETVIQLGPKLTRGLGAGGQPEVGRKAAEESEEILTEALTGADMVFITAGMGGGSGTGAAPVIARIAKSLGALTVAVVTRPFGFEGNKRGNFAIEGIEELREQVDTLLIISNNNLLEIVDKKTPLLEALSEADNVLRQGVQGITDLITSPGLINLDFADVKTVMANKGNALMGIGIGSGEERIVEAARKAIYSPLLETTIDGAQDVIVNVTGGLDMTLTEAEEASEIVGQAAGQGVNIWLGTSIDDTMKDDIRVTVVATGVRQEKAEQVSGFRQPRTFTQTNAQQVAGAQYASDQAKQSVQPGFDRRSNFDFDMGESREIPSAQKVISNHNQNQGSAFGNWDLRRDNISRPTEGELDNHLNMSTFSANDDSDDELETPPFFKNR", "settings": "for Kd: 50 mM Tris-HCl (pH 7.6), 50 mM KCl", "description": "(§1) Fluorescence anisotropy assay for determining the affinities and thermodynamics associated with the binding of BOFP to FtsZ proteins. Fluorescence anisotropy experiments were performed using an AVIV model ATF105 spectrofluorometer at 15, 25, or 37° C. In these experiments, bandwidths were set to 4 nm in both the excitation and emission directions, with the excitation and emission wavelengths being set at 488 nm and 510 nm, respectively. BOFP (0.1 μM) was titrated with increasing concentrations (ranging from 0 to 12 μM) of FtsZ in 120 μL of buffer containing 50 mM Tris-HCl (pH 7.6) and 50 mM KCl. After each protein addition, the samples were equilibrated for 3 minutes, whereupon the fluorescence anisotropy was measured.\n(§2) [formula] In this equation, r0 is the anisotropy of the protein-free compound, r∞ is the anisotropy of the compound in the presence of an infinite concentration of FtsZ, [C]tot is the total concentration of the compound, and [P]tot is the total concentration of protein with each addition. These analyses yielded the equilibrium dissociation constant (Kd) for each binding reaction.\n(§3) The binding free energy (ΔG) at temperature T was derived from the corresponding Kd value determined at T using the following relationship:\n(§4) [formula] The binding enthalpy (ΔH) and entropy (ΔS) were derived from linear fits of the ln(1/Kd) vs. 1/T plots shown in FIGS. 3f and 5e using the following relationship:\n(§5) A quartz ultra-micro cell (Hellma) with a 2×5 mm aperture and a 15 mm center height was used for all measurements. The pathlengths in the excitation and emissions directions were 1 and 0.2 cm, respectively. All steady-state anisotropy experiments were conducted in at least triplicate, with the reported anisotropies reflecting the average values."}, "[2]": {"target": "T1, S. aureus FtsZ (SaFtsZ) (Staphylococcus aureus, UniProt P0A031)", "T1 sequence (P0A031 1-390)": "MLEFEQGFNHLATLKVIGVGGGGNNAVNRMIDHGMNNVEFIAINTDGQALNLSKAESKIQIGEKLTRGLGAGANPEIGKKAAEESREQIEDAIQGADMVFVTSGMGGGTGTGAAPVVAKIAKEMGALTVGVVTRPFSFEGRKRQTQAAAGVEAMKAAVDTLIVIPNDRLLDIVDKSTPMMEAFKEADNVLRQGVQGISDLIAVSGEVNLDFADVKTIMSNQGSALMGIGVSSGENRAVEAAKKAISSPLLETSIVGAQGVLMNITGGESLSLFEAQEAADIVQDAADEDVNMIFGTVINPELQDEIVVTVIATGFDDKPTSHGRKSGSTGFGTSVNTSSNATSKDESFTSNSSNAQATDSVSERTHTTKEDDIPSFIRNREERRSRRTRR", "description": "as §1, §2, §3, §4, §5"}, "[3]": {"target": "Escherichia coli FtsZ (EcFtsZ) (Escherichia coli, UniProt P0A9A6)", "sequence (P0A9A6 whole entry)": "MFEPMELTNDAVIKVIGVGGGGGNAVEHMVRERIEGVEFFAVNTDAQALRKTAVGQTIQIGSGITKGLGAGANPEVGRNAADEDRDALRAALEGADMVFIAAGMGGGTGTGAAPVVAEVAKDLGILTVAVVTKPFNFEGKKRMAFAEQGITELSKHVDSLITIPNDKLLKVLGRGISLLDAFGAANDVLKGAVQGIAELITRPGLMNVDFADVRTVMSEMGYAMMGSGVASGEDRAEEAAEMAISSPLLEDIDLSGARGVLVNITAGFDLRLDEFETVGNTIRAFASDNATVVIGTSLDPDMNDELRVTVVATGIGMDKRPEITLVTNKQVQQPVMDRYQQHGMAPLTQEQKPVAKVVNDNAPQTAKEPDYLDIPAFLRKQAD", "settings": "for Kd: 50 mM Tris-HCl (pH 7.6), 50 mM KCl", "description": "as §1, §2, §3, §4, §5"}, "[4]": {"target": "Klebsiella pneumoniae FtsZ (KpFtsZ) (Klebsiella pneumoniae, UniProt A0A0H3GRR0)", "sequence (A0A0H3GRR0 entry or part of it)": "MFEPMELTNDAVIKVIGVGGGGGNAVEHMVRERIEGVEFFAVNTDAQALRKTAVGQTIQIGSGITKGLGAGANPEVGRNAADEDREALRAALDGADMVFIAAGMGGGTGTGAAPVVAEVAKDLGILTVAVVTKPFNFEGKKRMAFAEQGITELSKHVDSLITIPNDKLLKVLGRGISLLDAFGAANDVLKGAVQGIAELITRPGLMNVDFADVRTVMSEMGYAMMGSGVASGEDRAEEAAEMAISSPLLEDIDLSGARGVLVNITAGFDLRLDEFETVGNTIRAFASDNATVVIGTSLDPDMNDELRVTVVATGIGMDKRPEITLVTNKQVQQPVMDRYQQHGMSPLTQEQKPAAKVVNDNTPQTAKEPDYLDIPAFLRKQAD", "settings": "for Kd: 50 mM Tris-HCl (pH 7.6), 50 mM KCl", "description": "as §1, §2, §3, §4, §5"}, "[5]": {"target": "T2, Enterococcus faecium FtsZ (EfmFtsZ) (Enterococcus faecium, UniProt Q3Y2I1)", "T2 sequence (Q3Y2I1 1-413)": "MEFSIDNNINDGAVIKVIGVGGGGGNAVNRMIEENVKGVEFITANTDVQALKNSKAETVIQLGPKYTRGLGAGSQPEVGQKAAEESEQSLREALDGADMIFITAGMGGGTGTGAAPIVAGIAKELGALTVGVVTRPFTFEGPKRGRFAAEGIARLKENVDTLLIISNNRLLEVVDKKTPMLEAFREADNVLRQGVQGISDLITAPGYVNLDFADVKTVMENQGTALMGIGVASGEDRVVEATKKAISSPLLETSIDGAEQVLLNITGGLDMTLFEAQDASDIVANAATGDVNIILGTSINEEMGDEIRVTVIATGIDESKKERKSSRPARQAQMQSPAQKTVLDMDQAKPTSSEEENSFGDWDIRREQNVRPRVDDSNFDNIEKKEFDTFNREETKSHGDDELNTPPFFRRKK", "settings": "for Kd: 50 mM Tris-HCl (pH 7.6), 50 mM KCl", "description": "as §1, §2, §3, §4, §5"}, "[6]": {"target": "T3, Pseudomonas aeruginosa FtsZ (PaFtsZ) (Pseudomonas aeruginosa, UniProt P47204)", "T3 sequence (P47204 1-394)": "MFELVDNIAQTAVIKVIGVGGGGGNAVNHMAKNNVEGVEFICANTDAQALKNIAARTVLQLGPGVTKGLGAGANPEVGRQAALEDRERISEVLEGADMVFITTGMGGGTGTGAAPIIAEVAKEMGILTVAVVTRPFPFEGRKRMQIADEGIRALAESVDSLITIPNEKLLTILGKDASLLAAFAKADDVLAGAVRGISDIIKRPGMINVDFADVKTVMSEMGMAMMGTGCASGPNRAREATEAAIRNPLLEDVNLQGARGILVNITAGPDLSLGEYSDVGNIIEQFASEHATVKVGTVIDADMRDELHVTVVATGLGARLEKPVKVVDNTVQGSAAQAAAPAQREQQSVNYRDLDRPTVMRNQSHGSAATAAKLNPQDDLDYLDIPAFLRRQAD", "settings": "for Kd: 50 mM Tris-HCl (pH 7.6), 50 mM KCl", "description": "as §1, §2, §3, §4, §5"}, "[7]": {"settings": "linear fit of ln(1/Kd) vs. 1/T, Eq. 3"}, "[8]": {"settings": "SaFtsZ, linear fit of ln(1/Kd) vs. 1/T, Eq. 3"}},
  "note": "Where two headings read alike, the source gives them in different places.",
  "data": [
    {"smiles": "CC1=CC(C)=[N+]2C1=Cc1ccc(CCC(=O)OCC(Oc3ccc(F)c(C(N)=O)c3F)c3nc(-c4ccc(C(F)(F)F)cc4)c(Br)o3)n1[B-]2(F)F", "note": "(stereo not drawn) [BOFP, 2-(5-bromo-4-(4-(trifluoromethyl)phenyl)-oxazol-2-yl)-2-(3-carbamoyl-2,4-difluorophenoxy)ethyl 3-(5,5-difluoro-7,9-dimethyl-5H-5λ^4,6λ^4-dipyrrolo[1,2-c:2′,1′-f][1,3,2]diazaborinin-3-yl)propanoate]", "values": [
      {"measurement": "ΔH contribution to the observed ΔG of binding", "setting": "[1]", "result": "> 50", "unit": "%"},
      {"measurement": "Kd", "setting": "[1]; 15° C., read-out: Kd −15° C.", "result": "0.91 ± 0.06", "unit": "µM"},
      {"measurement": "Kd", "setting": "[1]; 25° C., read-out: Kd −25° C.", "result": "1.31 ± 0.08", "unit": "µM"},
      {"measurement": "Kd", "setting": "[1]; 37° C., read-out: Kd −37° C.", "result": "1.55 ± 0.08", "unit": "µM"},
      {"measurement": "ΔG", "setting": "[1]; T = 310K (37° C.), Eq. 2", "result": "-34.3 ± 0.42", "unit": "kJ/mol"},
      {"measurement": "ΔH", "setting": "[1]; [7]", "result": "-18 ± 4.6", "unit": "kJ/mol"},
      {"measurement": "ΔS", "setting": "[1]; [7]", "result": "+12.8 ± 3.7 cal/mol · K"},
      {"measurement": "Kd", "setting": "[2]", "result": "0.88 to 3.14", "unit": "µM"},
      {"measurement": "enthalpic contribution (ΔH) to the observed ΔG of binding", "setting": "[2]; SaFtsZ", "result": 100, "unit": "%"},
      {"measurement": "Kd", "setting": "[2]; SaFtsZ, 15° C., 50 mM Tris-HCl (pH 7.6), 50 mM KCl, read-out: Kd −15° C.", "result": "0.88 ± 0.08", "unit": "µM"},
      {"measurement": "Kd", "setting": "[2]; SaFtsZ, 25° C., 50 mM Tris-HCl (pH 7.6), 50 mM KCl, read-out: Kd −25° C.", "result": "1.66 ± 0.12", "unit": "µM"},
      {"measurement": "Kd", "setting": "[2]; SaFtsZ, 37° C., 50 mM Tris-HCl (pH 7.6), 50 mM KCl, read-out: Kd −37° C.", "result": "3.14 ± 0.13", "unit": "µM"},
      {"measurement": "ΔG", "setting": "[2]; SaFtsZ, T = 310K (37° C.), Eq. 2", "result": "-32.6 ± 0.42", "unit": "kJ/mol"},
      {"measurement": "ΔH", "setting": "[2]; [8]", "result": "-42.7 ± 1.3", "unit": "kJ/mol"},
      {"measurement": "ΔS", "setting": "[2]; [8]", "result": "−7.8 ± 1.0", "unit": "cal/mol · K"},
      {"measurement": "ΔH contribution to the observed ΔG of binding", "setting": "[3]", "result": "> 50", "unit": "%"},
      {"measurement": "Kd", "setting": "[3]; 15° C., read-out: Kd −15° C.", "result": "0.22 ± 0.03", "unit": "µM"},
      {"measurement": "Kd", "setting": "[3]; 25° C., read-out: Kd −25° C.", "result": "0.28 ± 0.02", "unit": "µM"},
      {"measurement": "Kd", "setting": "[3]; 37° C., read-out: Kd −37° C.", "result": "0.44 ± 0.04", "unit": "µM"},
      {"measurement": "ΔG", "setting": "[3]; T = 310K (37° C.), Eq. 2", "result": "-37.7 ± 0.42", "unit": "kJ/mol"},
      {"measurement": "ΔH", "setting": "[3]; [7]", "result": "-23.4 ± 3.3", "unit": "kJ/mol"},
      {"measurement": "ΔS", "setting": "[3]; [7]", "result": "+11.2 ± 2.7 cal/mol · K"},
      {"measurement": "ΔH contribution to the observed ΔG of binding", "setting": "[4]", "result": "> 50", "unit": "%"},
      {"measurement": "Kd", "setting": "[4]; 15° C., read-out: Kd −15° C.", "result": "0.42 ± 0.05", "unit": "µM"},
      {"measurement": "Kd", "setting": "[4]; 25° C., read-out: Kd −25° C.", "result": "0.58 ± 0.04", "unit": "µM"},
      {"measurement": "Kd", "setting": "[4]; 37° C., read-out: Kd −37° C.", "result": "0.82 ± 0.04", "unit": "µM"},
      {"measurement": "ΔG", "setting": "[4]; T = 310K (37° C.), Eq. 2", "result": "-36 ± 0.42", "unit": "kJ/mol"},
      {"measurement": "ΔH", "setting": "[4]; [7]", "result": "-22.6 ± 0.42", "unit": "kJ/mol"},
      {"measurement": "ΔS", "setting": "[4]; [7]", "result": "+10.5 ± 0.1 cal/mol · K"},
      {"measurement": "ΔS contribution to the observed ΔG of binding", "setting": "[5]", "result": "> 50", "unit": "%"},
      {"measurement": "Kd", "setting": "[5]; 15° C., read-out: Kd −15° C.", "result": "2.5 ± 0.14", "unit": "µM"},
      {"measurement": "Kd", "setting": "[5]; 25° C., read-out: Kd −25° C.", "result": "2.62 ± 0.08", "unit": "µM"},
      {"measurement": "Kd", "setting": "[5]; 37° C., read-out: Kd −37° C.", "result": "3.14 ± 0.22", "unit": "µM"},
      {"measurement": "ΔH", "setting": "[5]; [7]", "result": "-7.95 ± 2.5", "unit": "kJ/mol"},
      {"measurement": "ΔS", "setting": "[5]; [7]", "result": "+19.2 ± 1.9 cal/mol · K"},
      {"measurement": "ΔH contribution to the observed ΔG of binding", "setting": "[6]", "result": "> 50", "unit": "%"},
      {"measurement": "Kd", "setting": "[6]; 15° C., read-out: Kd −15° C.", "result": "0.23 ± 0.02", "unit": "µM"},
      {"measurement": "Kd", "setting": "[6]; 25° C., read-out: Kd −25° C.", "result": "0.36 ± 0.06", "unit": "µM"},
      {"measurement": "Kd", "setting": "[6]; 37° C., read-out: Kd −37° C.", "result": "0.58 ± 0.06", "unit": "µM"},
      {"measurement": "ΔG", "setting": "[6]; T = 310K (37° C.), Eq. 2", "result": "-36.8 ± 0.42", "unit": "kJ/mol"},
      {"measurement": "ΔH", "setting": "[6]; [7]", "result": "-32.2 ± 0.84", "unit": "kJ/mol"},
      {"measurement": "ΔS", "setting": "[6]; [7]", "result": "+3.8 + 0.6 cal/mol · K"}
    ]}
  ]
}
